# Measured values as given in patent publication US9296741B2, “Bromodomain inhibitors” (priority 2012, dated 2016).
# What was measured:
# [1] = biological target: human BRD4 first bromodomain (BDI_K57-E168) (Homo sapiens (Human), UniProt O60885); experiment: TR-FRET bromodomain binding assay, BRD4 first bromodomain
# [2] = biological target: human BRD4 second bromodomain (BDII_E352-M457) (Homo sapiens (Human), UniProt O60885); experiment: TR-FRET bromodomain binding assay, BRD4 second bromodomain
# [3] = Human liver microsome stability assay; format: in vitro ADME; details: both sexes, human, microsomes, pH 7.4
# [4] = Rat liver microsome stability assay; format: in vitro ADME; details: rat liver microsomes (male Sprague-Dawley), 0.5 μM test compound, pH 7.4, 37° C.; for half-life at 0.5 μM: 0.25 mg/mL microsomal protein, read-out: Stability in rat liver microsomes (t1/2 in minutes); for Stability in rat liver microsomes (t1/2 in minutes): […] microsomal protein
# [5] = Mouse liver microsome stability assay; format: in vitro ADME; details: male, CD1, mouse, microsomes, pH 7.4
# [6] = tested on: breast cancer cell line MX-1; experiment: MX-1 cell line proliferation assay; format: cell-based, human; details: Homo sapiens, MX1, 72 h; MX-1 cells, 3-day proliferation, Cell Titer Glo; read-out: Cellular proliferation: EC50
Compound,Ki [1],Ki [2],half-life at 0.5 μM [3],half-life at 0.5 μM [4],half-life at 0.5 μM [5],EC50 [6],Stability in rat liver microsomes (t1/2 in minutes) [4]
"Cn1cc(-c2ccccc2-c2ccccc2)c2cc[nH]c2c1=O [Example 196, 4-(biphenyl-2-yl)-6-methyl-1,6-dihydro-7H-pyrrolo[2,3-c]pyridin-7-one]",9500 nM,479 nM,59 min,5 min,3 min,–,–
"Cn1cc(-c2cc(C(=O)Nc3ccc4cn[nH]c4c3)ccc2Oc2ccc(F)cc2F)c2cc[nH]c2c1=O [Example 118, 4-(2,4-difluorophenoxy)-N-(1H-indazol-6-yl)-3-(6-methyl-7-oxo-6,7-dihydro-1H-pyrrolo[2,3-c]pyridin-4-yl)benzamide]",–,–,81 min,34 min,18 min,–,–
"Cn1cc(-c2cc(S(C)(=O)=O)ccc2Oc2ccc3cccnc3c2)c2cc[nH]c2c1=O [Example 188, 6-methyl-4-[5-(methylsulfonyl)-2-(quinolin-7-yloxy)phenyl]-1,6-dihydro-7H-pyrrolo[2,3-c]pyridin-7-one]",29.4 nM,18 nM,26 min,22 min,6 min,–,–
"Cn1cc(-c2ccccc2C(O)c2ccc(Cl)cc2)c2cc[nH]c2c1=O (stereo not shown) [Example 140, 4-{2-[(4-chlorophenyl)(hydroxy)methyl]phenyl}-6-methyl-1,6-dihydro-7H-pyrrolo[2,3-c]pyridin-7-one]",–,–,19 min,13 min,18 min,–,–
"Cn1cc(-c2cc(S(C)(=O)=O)ccc2Oc2cccnc2)c2cc[nH]c2c1=O [Example 190, 6-methyl-4-[5-(methylsulfonyl)-2-(pyridin-3-yloxy)phenyl]-1,6-dihydro-7H-pyrrolo[2,3-c]pyridin-7-one]",–,–,27 min,66 min,8 min,–,–
"COc1cc(Br)ccc1-c1cn(C)c(=O)c2[nH]ccc12 [Example 241, 4-(4-bromo-2-methoxyphenyl)-6-methyl-1,6-dihydro-7H-pyrrolo[2,3-c]pyridin-7-one]",–,–,39 min,9 min,4 min,–,–
"Cn1cc(-c2ccccc2C(=O)c2ccc(Cl)cc2)c2cc[nH]c2c1=O [Example 139, 4-[2-(4-chlorobenzoyl)phenyl]-6-methyl-1,6-dihydro-7H-pyrrolo[2,3-c]pyridin-7-one]",–,–,13 min,8 min,7 min,–,–
"Cn1cc(-c2ccccc2Oc2ccccc2)c2cc[nH]c2c1=O [Example 1, 6-methyl-4-(2-phenoxyphenyl)-1,6-dihydro-7H-pyrrolo[2,3-c]pyridin-7-one]",136 nM,41 nM,9 min,–,–,137 nM,1 min
"CCOc1ccc(S(C)(=O)=O)cc1-c1cn(C)c(=O)c2[nH]ccc12 [Example 259, 4-[2-ethoxy-5-(methylsulfonyl)phenyl]-6-methyl-1,6-dihydro-7H-pyrrolo[2,3-c]pyridin-7-one]",24.2 nM,20.3 nM,117 min,87 min,–,123 nM,–
"CCS(=O)(=O)c1ccc(OC2CCC(=O)CC2)c(-c2cn(C)c(=O)c3[nH]ccc23)c1 [Example 199, 4-{5-(ethylsulfonyl)-2-[(4-oxocyclohexyl)oxy]phenyl}-6-methyl-1,6-dihydro-7H-pyrrolo[2,3-c]pyridin-7-one]",–,–,94 min,–,3 min,–,1 min
"Cn1cc(-c2ccccc2Oc2ccccc2)c2cc(-c3ccccc3)[nH]c2c1=O [Example 88, 6-methyl-4-(2-phenoxyphenyl)-2-phenyl-1,6-dihydro-7H-pyrrolo[2,3-c]pyridin-7-one]",635 nM,236 nM,23 min,12 min,–,> 3000 nM,–
"Cn1cc(-c2cc(C(=O)NCCc3c[nH]c4ccccc34)ccc2Oc2ccc(F)cc2F)c2cc[nH]c2c1=O [Example 133, 4-(2,4-difluorophenoxy)-N-[2-(1H-indol-3-yl)ethyl]-3-(6-methyl-7-oxo-6,7-dihydro-1H-pyrrolo[2,3-c]pyridin-4-yl)benzamide]",–,–,4 min,5 min,3 min,–,–
"CCS(=O)(=O)Nc1ccc(OC2CCOC2)c(-c2cn(C)c(=O)c3[nH]ccc23)c1 (stereo not shown) [Example 66, N-[3-(6-methyl-7-oxo-6,7-dihydro-1H-pyrrolo[2,3-c]pyridin-4-yl)-4-(tetrahydrofuran-3-yloxy)phenyl]ethanesulfonamide]",0.74 nM,3.4 nM,> 120 min,> 120 min,–,33.2 nM,–
"Cn1cc(-c2cc(S(=O)(=O)NCc3cccnc3)ccc2OCC2CC2)c2cc[nH]c2c1=O [Example 333, 4-(cyclopropylmethoxy)-3-(6-methyl-7-oxo-6,7-dihydro-1H-pyrrolo[2,3-c]pyridin-4-yl)-N-(pyridin-3-ylmethyl)benzenesulfonamide]",36.9 nM,32.7 nM,0.8 min,3 min,–,74 nM,–
"Cc1cc(OCC2CC2)c(-c2cn(C)c(=O)c3[nH]ccc23)cc1NS(C)(=O)=O [Example 263, N-[4-(cyclopropylmethoxy)-2-methyl-5-(6-methyl-7-oxo-6,7-dihydro-1H-pyrrolo[2,3-c]pyridin-4-yl)phenyl]methanesulfonamide]",8.8 nM,16.3 nM,70 min,72 min,–,76.9 nM,–
"CCS(=O)(=O)c1ccc(OC2CCSCC2)c(-c2cn(C)c(=O)c3[nH]ccc23)c1 [Example 264, 4-[5-(ethylsulfonyl)-2-(tetrahydro-2H-thiopyran-4-yloxy)phenyl]-6-methyl-1,6-dihydro-7H-pyrrolo[2,3-c]pyridin-7-one]",1.2 nM,1.2 nM,14 min,6 min,–,17.8 nM,–
"Cn1cc(-c2cc(CN3CCOCC3)ccc2OCC2CC2)c2cc[nH]c2c1=O [Example 316, 4-[2-(cyclopropylmethoxy)-5-(morpholin-4-ylmethyl)phenyl]-6-methyl-1,6-dihydro-7H-pyrrolo[2,3-c]pyridin-7-one]",–,–,47 min,3 min,12 min,–,–

# Results, then the molecule that gave them:
Ki [1],Ki [2],half-life at 0.5 μM [3],half-life at 0.5 μM [4],half-life at 0.5 μM [5],EC50 [6],Stability in rat liver microsomes (t1/2 in minutes) [4],Compound
98.6 nM,60 nM,> 120 min,71 min,83 min,–,–,"CN(C)CCNC(=O)c1ccc(Oc2ccc(F)cc2F)c(-c2cn(C)c(=O)c3[nH]ccc23)c1 [Example 131, 4-(2,4-difluorophenoxy)-N-[2-(dimethylamino)ethyl]-3-(6-methyl-7-oxo-6,7-dihydro-1H-pyrrolo[2,3-c]pyridin-4-yl)benzamide]"
24.8 nM,8.2 nM,9 min,4 min,5 min,–,–,"Cc1ccc(F)cc1Oc1ccc(S(C)(=O)=O)cc1-c1cn(C)c(=O)c2[nH]ccc12 [Example 187, 4-[2-(5-fluoro-2-methylphenoxy)-5-(methylsulfonyl)phenyl]-6-methyl-1,6-dihydro-7H-pyrrolo[2,3-c]pyridin-7-one]"
28.9 nM,19.1 nM,41 min,38 min,49 min,–,–,"Cn1cc(-c2cc(S(C)(=O)=O)ccc2Oc2cc(F)c(F)c(F)c2)c2cc[nH]c2c1=O [Example 194, 6-methyl-4-[5-(methylsulfonyl)-2-(3,4,5-trifluorophenoxy)phenyl]-1,6-dihydro-7H-pyrrolo[2,3-c]pyridin-7-one]"
–,–,8 min,16 min,2 min,–,–,"Cn1cc(-c2cc(C(=O)NCCN3CCCC3=O)ccc2Oc2ccc(F)cc2F)c2cc[nH]c2c1=O [Example 122, 4-(2,4-difluorophenoxy)-3-(6-methyl-7-oxo-6,7-dihydro-1H-pyrrolo[2,3-c]pyridin-4-yl)-N-[2-(2-oxopyrrolidin-1-yl)ethyl]benzamide]"
–,–,44 min,71 min,20 min,–,–,"CN(C)C(=O)CN1CCN(C(=O)c2ccc(Oc3ccc(F)cc3F)c(-c3cn(C)c(=O)c4[nH]ccc34)c2)CC1 [Example 127, 2-{4-[4-(2,4-difluorophenoxy)-3-(6-methyl-7-oxo-6,7-dihydro-1H-pyrrolo[2,3-c]pyridin-4-yl)benzoyl]piperazin-1-yl}-N,N-dimethylacetamide]"
80.1 nM,5 nM,1 min,2 min,–,36 nM,–,"Cn1cc(-c2cc(S(=O)(=O)N3CCCC3)ccc2Oc2ccc(F)cc2F)c2cc[nH]c2c1=O [Example 299, 4-[2-(2,4-difluorophenoxy)-5-(pyrrolidin-1-ylsulfonyl)phenyl]-6-methyl-1,6-dihydro-7H-pyrrolo[2,3-c]pyridin-7-one]"
21.5 nM,7.8 nM,8 min,20 min,–,56.4 nM,–,"CN(C)S(=O)(=O)c1cnc(Oc2ccc(F)cc2F)c(-c2cn(C)c(=O)c3[nH]ccc23)c1 [Example 266, 6-(2,4-difluorophenoxy)-N,N-dimethyl-5-(6-methyl-7-oxo-6,7-dihydro-1H-pyrrolo[2,3-c]pyridin-4-yl)pyridine-3-sulfonamide]"
